Data taken from patent publication US11298366B2, “Ibandronate conjugates of nucleoside antimetabolites” (MBC Pharma, Inc., priority 2017, dated 2022).

Assays:
[1] = system: 22 RV1-Luc+ prostate cancer cells; experiment: Incidence of distal metastases in a rodent model of prostate cancer induced bone disease (intratibial 22 RV1-Luc+ cells); type: in vivo, male SCID mice; details: day 34 and day 41; for percent of mice with distal metastases (FIG. 3): 2 mg/kg gemcitabine-ibandronate conjugate or molar equivalent, intraperitoneal QDx5 from day 7, versus saline
Procedure: Mice were treated with saline, or equimolar doses of ibandronate (Iband), gemcitabine (Gem), gemcitabine-etidronate conjugate (Gem-Eti), or with the gemcitabine-ibandronate conjugate 5 (Gem-Ibad).
As above in example 5, six-week old male SCID mice were injected with 10 uL of 10^6 22 RV1-Luc+ prostate cancer cells into the tibia. Luminescence on day 6 confirmed implantation and mice were randomized into groups of 10-13 and began dosing on day 7. Mice received intraperitoneal injections QDx5 (5 days/week) of saline or 2 mg/kg gemcitibine-ibandronate conjugate or the molar equivalent of gemcitabine-etidronate conjugate, free ibandronate, or free gemcitibine until the end of week 6 and were imaged every 7 days. A Xenogen imaging station was used to visualize tumor cells and metastases distal to the tibial site of implantation.

[2] = system: 22 RV1-Luc+ prostate cancer cells; experiment: Survival and tumor imaging in a rodent model of prostate cancer induced bone disease (intratibial 22 RV1-Luc+ cells); type: in vivo, male SCID mice
Procedure: Six-week old male SCID mice were injected with 10 uL of 10^6 22 RV1-Luc+ prostate cancer cells into the tibia. Luminescence on day 6 confirmed implantation and mice were randomized into groups of 10 and began dosing on day 7. Mice received intraperitoneal injections 5 days/week of saline or 2 mg/kg gemcitibine-ibandronate conjugate (compound 5, example 1) until the end of week 6 and were imaged every 7 days. A Xenogen imaging station was used to visualize tumor cells; the heat map from light blue to red indicates increasing tumor cells numbers.

[3] = system: MDA-MB-231-luc-D3H2LN cells; experiment: Survival in a rodent model of breast cancer (intracardiac injection of MDA-MB-231-luc-D3H2LN cells); type: in vivo, Female Harlan nude mice (Hsd:Athymic Nude-Foxn1nu); details: for effect on survival (Kaplan-Meier, FIG. 1): intraperitoneal QDx5 from day 22 after implantation, 5 mg/kg gemcitabine-ibandronate conjugate, 6 mg/mg gemcitabine-etidronate conjugate, equimolar free etidronate, ibandronate, gemcitabine, groups of 10
Procedure: FIG. 1 provides Kaplan-Meier survival curves: a murine model of breast cancer of mice treated with saline gemcitabine-ibandronate conjugate (GEM-IB) or gemcitabine-etidronate conjugate (GEM-ET).
Female Harlan nude mice (Hsd:Athymic Nude-Foxn1nu) of 8 weeks age were administered a 100 uL intracardiac injection of MDA-MB-231-luc-D3H2LN cells (Caliper/Xenogen) at106 cells/mL in Dulbecco's Phosphate Buffered Saline. Twenty-two days after implantation the animals were randomized into groups of 10. Each group received one of the following agents 5 days per week (QDx5) as a 100 uL intraperitoneal injection to achieve a dosing of: saline, 5 mg/kg gemcitabine-ibandronate conjugate, 6 mg/mg gemcitabine-etidronate conjugate, equimolar free etidronate, equimolar free ibandronate, equimolar free gemcitabine.

Compound | percent of mice with distal metastases (FIG. 3) [1] | benefit on distal metastases compared with the other treatments ([1]; 2 mg/kg intraperitoneal QDx5) | mice alive at the end of 42 days (FIG. 2) ([2]; 2 mg/kg intraperitoneal 5 days/week from day 7 until end of week 6, groups of 10, saline control 6 of 10 alive) | cancer cells present by Xenogen image analysis ([2]; 2 mg/kg intraperitoneal 5 days/week, from day 28 and later, versus saline) | survival benefit compared with the other treatments ([3]; intraperitoneal QDx5, 5 mg/kg gemcitabine-ibandronate conjugate versus 6 mg/mg gemcitabine-etidronate conjugate) | effect on survival (Kaplan-Meier, FIG. 1) [3]
CCCCCN(C)CCC(O)(P(=O)(O)O)P(=O)(O)OP(=O)(O)OC[C@H]1O[C@@H](n2ccc(N)nc2=O)C(F)(F)C1O (some centres unmarked) [conjugate 5, Gemcitabine-Ibandronate Conjugate] | reduced the percent of mice with distal metastases | superior benefit | all mice treated with the compound 5 (example 1) were alive | less cancer cells are present | greatest benefit | improved survival
CC(O)(P(=O)(O)O)P(=O)(O)O [etidronate] | – | – | – | – | – | did not have a significant effect on survival
Nc1ccn([C@@H]2O[C@H](CO)[C@@H](O)C2(F)F)c(=O)n1 [gemcitabine, Gemcitabine] | – | – | – | – | – | did not have a significant effect on survival
CCCCCN(C)CCC(O)(P(=O)(O)O)P(=O)(O)O [ibandronate] | – | – | – | – | – | did not have a significant effect on survival
gemcitabine-etidronate conjugate [reference compound] | reduced the percent of mice with distal metastases | – | – | – | – | improved survival
